Results reported in US10239844B2, “Disubstituted triazole analogs” (BioVentures, LLC, priority 2014, dated 2019).

What was measured:
OVCA R-3 = assay: NCI 60 panel five-dose growth inhibition, Ovarian Cancer; format: cell-based, human; details: for GI50: Homo sapiens, OVCAR-3
SK-MEL-2 = assay: NCI 60 panel five-dose growth inhibition, Melanoma; format: cell-based, human; details: SK-MEL-2, Melanoma; for GI50: Homo sapiens
U251 = assay: NCI 60 panel five-dose growth inhibition, CNS Cancer; format: cell-based, human; details: for GI50: Homo sapiens, U-251
RPMI-8226 = assay: NCI 60 panel five-dose growth inhibition, Leukemia; format: cell-based, human; details: RPMI-8226, Leukemia; for GI50: Homo sapiens
HL-60(T13) = assay: NCI 60 panel five-dose growth inhibition, Leukemia; format: cell-based, human; details: for GI50: Homo sapiens
HS 5781 = assay: NCI 60 panel five-dose growth inhibition, Breast Cancer; format: cell-based, human; details: HS 5781, Breast Cancer; for GI50: Homo sapiens
LOX IMVI = assay: NCI 60 panel five-dose growth inhibition, Melanoma; format: cell-based, human; details: for GI50: Homo sapiens
A498 = assay: NCI 60 panel five-dose growth inhibition, Renal Cancer; format: cell-based, human; details: for GI50: Homo sapiens, A498, A498, Renal Cancer
K-562 = assay: NCI 60 panel five-dose growth inhibition, Leukemia; format: cell-based, human; details: K-562, Leukemia; for GI50: Homo sapiens, K562
SF-295 = assay: NCI 60 panel five-dose growth inhibition, CNS Cancer; format: cell-based, human; details: SF-295, CNS Cancer; for GI50: Homo sapiens
[1] = tested on: panel of 60 different human cancer cell lines; assay: NCI panel of 60 human cancer cell lines, summary over the panel; format: cell-based; details: against almost all the cell lines except UACC-62, COLO 205 and HCC-2998
Description: All synthesized compounds were submitted and evaluated for their anticancer activity at the National Cancer Institute (NCI). The submitted compounds were tested against a panel of 60 different human cancer cell lines, initially at a single concentration of 10 μM. Compounds showing the best growth inhibition activity were then selected for a complete five-dose response study. The anti-tumor effect of each compound was then determined by its GI50 and LC50 values.
The five compounds selected for the full dose response studies have very effective GI50 and TGI (Total Growth Inhibition) values against a variety of human tumor cell lines. All the compounds have LD50 values >100 μM against most of the human cancer cell lines implying the compounds are anti-proliferative. […] Example 4 and Example 6 have <10 nM GI50 values against Leukemia cancer cell lines K-562, SR, non-small lung cancer cell line HOP-92, colon cancer cell lines HCT-116, HCT-15, melanoma cancer lines M14, UACC-62, ovarian cancer cell line NCI/ADR-RES and renal cancer cell line A498.

| Compound | GI50 (OVCA R-3; OVCA R-3, Ovarian Cancer) [nM] | TGI (OVCA R-3; OVCA R-3, Ovarian Cancer) [nM] | GI50 (SK-MEL-2) [nM] | TGI (SK-MEL-2) [nM] | TGI (U251) [nM] | GI50 (U251) [nM] | GI50 (RPMI-8226) [nM] | TGI (RPMI-8226) [nM] | TGI (HL-60(T13)) [nM] | GI50 (HL-60(T13)) [nM] | TGI (HS 5781) [nM] | TGI (LOX IMVI) [nM] | GI50 (LOX IMVI) [nM] | TGI (A498; A498, Renal Cancer) [nM] | GI50 (A498) [nM] | GI50 (K-562) [nM] | TGI (K-562) [nM] | GI50 (SF-295) [nM] | TGI (SF-295) [nM] | GI50 (HS 5781) [nM] | other results |
| --- | --- | --- | --- | --- | --- | --- | --- | --- | --- | --- | --- | --- | --- | --- | --- | --- | --- | --- | --- | --- | --- |
| COc1cc(-c2n[nH]nc2-c2cc(OC)c(OC)c(OC)c2)cc(OC)c1OC [Example 3, 4,5-bis(3,4,5-trimethoxyphenyl)-2H-1,2,3-triazole] | 10.8 | 40 | 26.9 | 4240 | 46900 | 37.1 | 36.5 | 87600 | 5740 | 30 | >100000 | >100000 | 65.2 | 6690 | 33.2 | 25.7 | >100000 | 14.4 | >100000 | – | – |
| COc1cc(-c2n[nH]nc2-c2ccc3ccccc3n2)cc(OC)c1OC [Example 4, 2-(5-(3,4,5-trimethoxyphenyl)-2H-1,2,3-triazol-4-yl)quinoline] | 24.4 | >100000 | 55.5 | >100000 | >100000 | 37.9 | 36.8 | 21100 | – | 22.7 | >100000 | >100000 | 75.5 | – | < 10 | < 10 | >100000 | 10.8 | 150 | 40.9 | – |
| COc1ccc(-c2n[nH]nc2-c2cc(OC)cc(OC)c2)cc1 [Example 5, 4-(3,5-dimethoxyphenyl)-5-(4-methoxyphenyl)-2H-1,2,3-triazole] | < 10 | <10 | < 10 | 30500 | 16500 | < 10 | < 10 | 24600 | – | < 10 | >100000 | >100000 | < 10 | <10 | < 10 | < 10 | >100000 | < 10 | 27500 | < 10 | TGI (OVCA R-3; OVCAR-3, as stated in text): less than 10 nM; GI50 [1]: < 10 nM; TGI (A498; A498, as stated in text): less than 10 nM |
| COc1ccc(-c2n[nH]nc2-c2cc(OC)c(OC)c(OC)c2)cc1 [Example 6, 4-(4-methoxyphenyl)-5-(3,4,5-trimethoxyphenyl)-2H-1,2,3-triazole] | < 10 | <10 | < 10 | 18100 | 22700 | 20.1 | 32.5 | 11000 | 80 | 18.9 | 64200 | 37800 | 17.5 | 1500 | < 10 | < 10 | >100000 | < 10 | 42800 | 668 | – |
| COc1cc(-c2n[nH]nc2-c2ccc3c(c2)OCCO3)cc(OC)c1OC [Example 7, 4-(2,3-dihydrobenzo[b][1,4]dioxin-6-yl)-5-(3,4,5-trimethoxyphenyl)-2H-1,2,3-triazole] | 432 | 370 | 23.6 | 55700 | 11200 | 302 | 326 | 22100 | – | 201 | >100000 | 87100 | 545 | 9320 | 343 | 49.6 | >100000 | 98.9 | 3610 | 442 | – |
